Data published in patent US9526681B2, “Compositions and methods for treating dental caries” (Colgate-Palmolive Company, priority 2012, dated 2016).

System: salivary sediment (oral cavity bacteria)
Test: Ammonia production by salivary sediment incubated with sucrose (diagnostic ammonia assay kit)
Assay type: cell-based
Settings: 0.1% sucrose, 37 degrees Celsius, 30 minutes; for ammonia production, Mean: mean of three trials
Experimental: In order to investigate the effects of arginine alone, mixtures of arginine and bisabolol and bisabolol alone, on the production of ammonia in the present or oral bacterium the following procedures are carried out. Stimulated whole saliva is collected on ice and centrifuged for 15 minutes at 4000 rpm to obtain a pellet and salivary supernatant. The pellet, which is termed the salivary sediment, contains a representative array of the oral microbes found in the oral cavity. This pellet is washed twice in cold filter sterilized deionized water by centrifugation for 10 minutes at 4000 rpm.
The salivary sediment is then diluted to 50% with cold filter sterilized deionized water. Stock solutions of 1% arginine and 1% sucrose in filter sterilized deionized water are made, and a stock solution of 1% bisabolol in ethanol is also made. Reaction mixtures tested contain 16.7% final concentration salivary sediment, 0.1% final concentration sucrose and 0.0871% final concentration arginine. The control reaction mixture contains only salivary sediment, sucrose and arginine in the salivary supernatant base. The test solutions have a final concentration of 0.05 and 0.1 bisabolol, respectively. The reaction mixtures are then incubated at 37 degrees Celsius for 30 minutes with mild agitation before determining ammonia production. A standard diagnostic ammonia assay kit is used to quantify ammonia produced.
Table 1 (below) describes the results of the procedures described above, wherein the ammonia production is measured in terms of nanomole per milligram (nm/mg).
Column A in Table 1 describes data collected for three trials of L-arginine (Control) reaction mixtures that contain salivary sediment and salivary supernatant with final concentrations of 0.1% sucrose and 0.0871% L-arginine. Column B in Table 1 describes data collected for three trials of 0.05% bisabolol plus arginine reaction mixtures that contain salivary sediment and salivary supernatant with final concentrations of 0.1% sucrose, 0.05% bisabolol and 0.0871% L-arginine. Column C in Table 1 describes data collected for three trials of 0.05% bisabolol reaction mixtures that contain salivary sediment and salivary supernatant with final concentrations of 0.1% sucrose and 0.05% bisabolol. Column D in Table 1 describes data collected for three trials of 0.1% bisabolol plus arginine reaction mixtures that contain salivary sediment and salivary supernatant with final concentrations of 0.1% sucrose, 0.1% Bisabolol and 0.0871% L-arginine. Column E in Table 1 describes data collected for three trials of 0.1% bisabolol reaction mixtures that contain salivary sediment and salivary supernatant with final concentrations of 0.1% sucrose and 0.1% bisabolol.

[1] = 0.05% bisabolol (with 0.0871% L-arginine in the combination), salivary sediment
[2] = 0.1% bisabolol (with 0.0871% L-arginine in the combination), salivary sediment
[3] = 0.0871% L-arginine, no bisabolol, 16.7% salivary sediment

SMILES	ammonia production, Trial 1 [1] [nm/mg]	ammonia production, Trial 2 [1] [nm/mg]	ammonia production, Trial 3 [1] [nm/mg]	ammonia production, Trial 1 [2] [nm/mg]	ammonia production, Trial 2 [2] [nm/mg]	ammonia production, Trial 3 [2] [nm/mg]	ammonia production, Mean [1] [nm/mg]	ammonia production, Mean [2] [nm/mg]	ammonia production, Trial 1 [3] [nm/mg]	ammonia production, Trial 2 [3] [nm/mg]	ammonia production, Trial 3 [3] [nm/mg]	ammonia production, Mean [3] [nm/mg]
CC(C)=CCC[C@](C)(O)C1CC=C(C)CC1 (stereo partly drawn) [Bisabolol, bisabolol]	200.61	27.86	66.87	133.74	562.81	228.47	98.45	308.34	–	–	–	–
N=C(N)NCCC[C@H](N)C(=O)O [Arginine, L-arginine, reference compound]	–	–	–	–	–	–	–	–	1532.40	1799.88	986.31	1439.53
